Tests used:
[1] = tested on: Petroselinum crispum cells; assay: Oxygen transfer rate (RAMOS) in suspension cells treated with substance and then with the elicitor Pep13; type: cell-based; conditions: 200 μM 72 hours after inoculation; for oxygen transfer rate in comparison to untreated cells and to cells only treated with Pep13 (specificity): 1 nM Pep13 96 hours after inoculation, FIG. 2
Experimental: (§1) 12.5 ml of a suspension of Petroselinum crispurn cells were inoculated in 250 ml shaking flasks containing 37.5 ml of modified Gamborg B5 medium and cultured at a temperature of 25° C. at a shaking frequency of 180 U/min and a shaking diameter of 5 cm in a RAMOS device (HiTec Zang, Herzogenrath). During the culture the oxygen partial pressure of the gas phase in the head space of the flask was measured and the oxygen transfer rate was calculated therefrom.
In yet another experiment, the cells were treated with 200 μM salicylic acid 72 hours after inoculation and with Pep13 96 hours after inoculation.
In parallel experiments, the cells were either treated with 200 μM salicylic acid, 200 μM 4-chlorsalicylic acid or with 200 μM 3-hydroxy benzoic acid 72 hours after inoculation and then in all experiments 1 nM Pep13 was added 96 hours after inoculation.

[2] = tested on: Petroselinum crispum cells; assay: Oxygen transfer rate (RAMOS) in suspension cells after treatment with a defense priming substance or elicitor alone; type: cell-based; conditions: 200 μM added 72 hours after inoculation; FIG. 1b
Excerpt: In the determination of the respiration activity with RAMOS, a measuring cycle is continuously repeated during fermentation. This measuring cycle comprises a measuring phase and a rinsing phase. During the rinsing phase, air is flushed through the measuring flask at a specific flow rate. At the beginning of the measuring phase, inlet and outlet valves of the measuring flask are closed. Respiration of the cells leads to a decrease in the oxygen partial pressure and to an increase in the carbon dioxide partial pressure in the gas headspace of the measuring flask. These partial pressures are monitored by an oxygen sensor and a differential pressure sensor. In addition, a carbon dioxide sensor may be used. Assuming linear changes in the measuring phase, a computer calculates the oxygen transfer rate and the carbon dioxide transfer rate according to the formulas provided above. […]
as §1, with “therefrom. […]” for “therefrom.”

Row | SMILES | oxygen transfer rate in comparison to untreated cells and to cells only treated with Pep13 (specificity) [1] | oxygen transfer rate compared with treatment with Pep13 alone ([1]; Pep13 96 hours after inoculation, FIG. 1d) | duration of the increase in oxygen transfer rate [2] | oxygen transfer rate in comparison to the untreated cells [2]
1 | O=C(O)c1cccc(O)c1 [3-hydroxy benzoic acid] | same increase in the oxygen transfer rate as the addition of Pep13 alone |  |  | 
2 | O=C(O)c1ccc(Cl)cc1O [4-chlorsalicylic acid] | increase in the oxygen transfer rate |  |  | 
3 | O=C(O)c1ccccc1O [salicylic acid] | increase in the oxygen transfer rate | stronger increase in the oxygen transfer rate than the treatment with Pep13 alone | about 48 hours | increase in the oxygen transfer rate

Reference: US20170254801A1, “METHOD FOR IDENTIFYING SUBSTANCES WHICH PRIME A DEFENSE RESPONSE” (RHEINISCH-WESTFÄLISCHE TECHNISCHE HOCHSCHULE AACHEN (RWTH), priority 2014, published 2017)
